Where a SMILES comes first, the peptide text is derived from it. Bridges are numbered along the chain shown (N, C = ends). Where no end group is shown, it is not given here.
Assays:
[1] = Concentration in plasma during 24-hour continuous intravenous administration (Example 4); type: in vivo, cynomolgus monkey; details: 0.1 mg/kg/day continuous i.v. 24 h, immediately before completion of administration
Protocol: (§1) The CNP derivative (A) was continuously intravenously administered at doses of 0.015 to 0.1 mg/kg/day at a constant rate to telemetry transmitter-implanted cynomolgus monkeys (two males and two females), and studied for its influence on blood pressure (systolic, diastolic, and average blood pressures), heart rate, and an electrocardiographic parameter.
[Table 3: Systolic blood pressure fluctuation range (maximum value during administration period) when CNP derivative (A) was continuously intravenously administered at constant rate for 24 hours to cynomolgus monkey, and concentration of CNP derivative (A) in plasma immediately before completion of administration

[2] = Blood pressure lowering effect, 24-hour continuous intravenous administration, telemetry (Example 4); type: in vivo, cynomolgus monkey; parameters: Systolic blood pressure fluctuation range (maximum value %): unit not given here; details: for Systolic blood pressure fluctuation range (maximum value %): maximum value during administration period
Protocol: as §1

[3] = Estimated concentration in plasma during repeated subcutaneous administration with two vehicles (Example 3); type: in vivo, rat
[4] = test system: NPR-B; details: Furuya et al. 1992; cited from earlier work
[5] = Body length after 7-day repeated or continuous subcutaneous administration (Example 2); type: in vivo, rat; details: for Body length (from mouth to end of tail): male SD rat
Protocol: A dosing solution of the CNP derivative (A) or (B) was repeatedly subcutaneously administered at doses of 0.005, 0.015, 0.05, 0.15 and 0.5 mg/kg/day once a day for 7 days to 7-week-old male Crl:CD (SD) rats, or charged in an osmotic pump (MINI-OSMOTIC PUMP Model 2002, manufactured by DURECT Corp., flow rate: 0.5 μL/hr, for 14-day use), implanted in the backs of rats, and continuously subcutaneously administered at these doses for 7 days. Their body lengths (from the mouth to the end of the tail) were measured before the start of administration and 8 days after the start of administration.

[6] = normal mice, continuous intravenous administration, increased bone length; cited from earlier work

NPR-B, sequence (P20594 23-1047, species assumed): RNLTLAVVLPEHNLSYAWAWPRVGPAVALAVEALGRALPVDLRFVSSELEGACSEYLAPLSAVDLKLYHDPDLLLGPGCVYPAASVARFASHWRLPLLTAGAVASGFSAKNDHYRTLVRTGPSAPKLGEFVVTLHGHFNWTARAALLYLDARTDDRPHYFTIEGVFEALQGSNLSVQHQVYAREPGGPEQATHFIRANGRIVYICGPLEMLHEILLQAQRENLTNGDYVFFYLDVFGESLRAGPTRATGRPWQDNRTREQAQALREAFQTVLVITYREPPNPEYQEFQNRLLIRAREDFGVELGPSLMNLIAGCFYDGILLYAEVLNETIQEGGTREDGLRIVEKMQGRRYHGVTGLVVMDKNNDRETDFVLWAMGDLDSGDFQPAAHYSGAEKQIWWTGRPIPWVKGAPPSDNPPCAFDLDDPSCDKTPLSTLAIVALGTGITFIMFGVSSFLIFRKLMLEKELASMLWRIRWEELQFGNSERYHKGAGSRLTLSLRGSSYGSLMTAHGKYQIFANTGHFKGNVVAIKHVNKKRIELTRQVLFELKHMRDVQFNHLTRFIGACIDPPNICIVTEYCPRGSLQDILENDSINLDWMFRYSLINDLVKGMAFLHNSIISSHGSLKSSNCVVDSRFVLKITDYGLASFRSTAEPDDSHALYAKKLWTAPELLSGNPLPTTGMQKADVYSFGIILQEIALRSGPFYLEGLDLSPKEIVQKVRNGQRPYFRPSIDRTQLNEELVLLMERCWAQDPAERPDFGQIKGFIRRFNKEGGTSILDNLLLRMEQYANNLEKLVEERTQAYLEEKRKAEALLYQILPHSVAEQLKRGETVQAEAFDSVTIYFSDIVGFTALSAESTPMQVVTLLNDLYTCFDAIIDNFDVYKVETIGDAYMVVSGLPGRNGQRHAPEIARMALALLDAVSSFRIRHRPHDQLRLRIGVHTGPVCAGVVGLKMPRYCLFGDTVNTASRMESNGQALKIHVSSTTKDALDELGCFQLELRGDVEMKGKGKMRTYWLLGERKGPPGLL

CC[C@H](C)[C@@H]1NC(=O)[C@H](CCCNC(=N)N)NC(=O)[C@H](CC(=O)O)NC(=O)[C@H](CC(C)C)NC(=O)[C@H](CCCCN)NC(=O)[C@H](CC(C)C)NC(=O)CNC(=O)[C@H](Cc2ccccc2)NC(=O)[C@@H](NC(=O)CNC(=O)[C@H](CCCCN)NC(=O)[C@H](CO)NC(=O)[C@H](CC(C)C)NC(=O)CN)CSSC[C@@H](C(=O)N[C@H](C(=O)N[C@@H](CCC(N)=O)C(=O)N[C@@H](CCC(N)=O)C(=O)N[C@@H](CCCNC(=N)N)C(=O)N[C@@H](CCCCN)C(=O)N[C@@H](CC(=O)O)C(=O)N[C@@H](CO)C(=O)N[C@@H](CCCCN)C(=O)N[C@@H](CCCCN)C(=O)N2CCC[C@H]2C(=O)N2CCC[C@H]2C(=O)N[C@@H](C)C(=O)N[C@@H](CCCCN)C(=O)N[C@@H](CC(C)C)C(=O)N[C@@H](CCC(N)=O)C(=O)N2CCC[C@H]2C(=O)N[C@@H](CCCNC(=N)N)C(=O)O)C(C)C)NC(=O)CNC(=O)[C@H](CC(C)C)NC(=O)CNC(=O)[C@H](CO)NC(=O)[C@H](CCSC)NC(=O)[C@H](CO)NC(=O)CNC1=O [CNP derivative (A)] (H-GLSKGCFGLKLDRIGSMSGLGCVQQRKDSKKPPAKLQPR-OH; disulfide 6-22; N-terminus and C-terminus assumed)
Concentration in plasma [1]: 9.8 ng/mL | Systolic blood pressure fluctuation range (maximum value %) ([2]; 0.015 mg/kg/day continuous i.v. 24 h): −6.8 | systolic blood pressure decrease ([2]; 0.05 mg/kg continuous i.v.): −11.0 mmHg | Systolic blood pressure fluctuation range (maximum value %) ([2]; 0.05 mg/kg/day continuous i.v. 24 h): −11.0 | systolic blood pressure decrease ([2]; 0.1 mg/kg continuous i.v.): −20.5 mmHg | Systolic blood pressure fluctuation range (maximum value %) ([2]; 0.1 mg/kg/day continuous i.v. 24 h): −20.5 | reflex tachycardia ([2]; concentration in plasma up to 9.8 ng/mL at its maximum): no symptom indicating reflex tachycardia was observed | concentration in plasma up to which reflex tachycardia is less likely to occur ([2]; elevated by continuous change): about 10 ng/mL | blood pressure lowering effect (systolic and average blood pressures), average of differences from pre-administration values ([2]; observed from 0.05 mg/kg): exceeding 10 mmHg | concentration in plasma at which the risk of developing decreased blood pressure is drastically reduced ([2]; waking cynomolgus monkeys): ≤ 4 ng/mL | estimated concentration in plasma ([3]; vehicle 1, 0.5 mg/kg s.c., 9 hours after administration): ≤ 0.1 ng/mL | estimated concentration in plasma ([3]; vehicle 1, 0.5 mg/kg s.c., immediately after administration): ≥ 200 ng/mL | peak concentration in plasma (estimated) ([3]; vehicle 2, 0.25 mg/kg s.c.): about 40 ng/mL | estimated concentration in plasma ([3]; vehicle 2, 0.25 mg/kg s.c., 12 hours after administration): ≥ 0.1 ng/mL

CNP6-22: peptide consisting of the ring structure, amino acid positions 6 to 22 of SEQ ID NO: 1 (CFGLKLDRIGSMSGLGC; disulfide 1-17 (inferred); listed as Homo sapiens)
NPR-B agonistic activity compared with hCNP-22 [4]: almost equivalent to that of hCNP-22

CNP derivative (B): derivative consisting of the amino acid sequence Pro-Gly-CNP-37 (SEQ ID NO: 4), from WO2009/067639, under clinical development for achondroplasia (PGQEHPNARKYKGANKKGLSKGCFGLKLDRIGSMSGLGC; CNP derivative D, which disclosed in Am. J. Hum. Gent.(2012), 91(6), 1108-1114)
bone growth effect per dose, continuous vs repeated subcutaneous administration ([5]; 7 days): stronger under continuous subcutaneous administration conditions | Body length (from mouth to end of tail) ([5]; continuous subcutaneous, 0.005 mg/kg/day, 7 days): 215.2 ± 3.5 ^NS mm | Body length (from mouth to end of tail) ([5]; continuous subcutaneous, 0.015 mg/kg/day, 7 days): 213.6 ± 4.4 ^NS mm | Body length (from mouth to end of tail) ([5]; continuous subcutaneous, 0.05 mg/kg/day, 7 days): 212.2 ± 5.2 ^NS mm | Body length (from mouth to end of tail) ([5]; continuous subcutaneous, 0.15 mg/kg/day, 7 days): 220.2 ± 4.3 mm | Body length (from mouth to end of tail) ([5]; continuous subcutaneous, 0.5 mg/kg/day, 7 days): 222.8 ± 3.5 mm | increase in body length (from the mouth to the end of the tail) ([5]; continuous subcutaneous, 7-day, doses of 0.15 mg/kg/day or higher): significant increase | effect on body length ([5]; repeated subcutaneous administration conditions, 7 days): no significant effect | Body length (from mouth to end of tail) ([5]; repeated subcutaneous, 0.005 mg/kg/day, 7 days): 211.8 ± 2.9 ^NS mm | Body length (from mouth to end of tail) ([5]; repeated subcutaneous, 0.015 mg/kg/day, 7 days): 213.2 ± 4.4 ^NS mm | Body length (from mouth to end of tail) ([5]; repeated subcutaneous, 0.05 mg/kg/day, 7 days): 214.4 ± 4.7 ^NS mm | Body length (from mouth to end of tail) ([5]; repeated subcutaneous, 0.15 mg/kg/day, 7 days): 211.3 ± 4.5 ^NS mm | Body length (from mouth to end of tail) ([5]; repeated subcutaneous, 0.5 mg/kg/day, 7 days): 215.2 ± 3.3 ^NS mm

CNP-22
effective concentration in plasma [6]: 29.3 ng/mL
